Experimental data published in publication PMC8843100, “Development of newly synthesised quinazolinone-based CDK2 inhibitors with potent efficacy against melanoma” (Journal of Enzyme Inhibition and Medicinal Chemistry, 2022).

Columns and labels:
HL-60(TB) = experiment: NCI-60 single dose screen, sulforhodamine B; assay type: cell-based, human; conditions: Leukaemia HL-60(TB); single dose 10^−5 M
Procedure: (§1) In this research, all of the newly synthesised quinazolinones were subjected to in vitro anticancer screening by the National Cancer Institute (USA) against 60 different human cell lines including leukaemia, non-small cell lung cancer, colon cancer, CNS cancer, melanoma, ovarian cancer, renal cancer, prostate cancer, and breast cancer. The tested compounds were evaluated at a single dose (10^−5 M). […] Regarding the benzenesulfonamide counterparts, the introduction of an electron-withdrawing group on the benzenesulfonamide moiety increased the inhibitory activity on the glioblastoma cell line SNB-75 as depicted by the chloro derivative 5c (GI% = 63.09) which was higher than that of the unsubstituted derivative 5a (GI% = 40.06) and the methyl derivative 5b (GI% = 33.03).
(§2) 1. Cytotoxicity screening against a panel of 60 human tumor cell lines
(§3) All the compounds were selected for NCI-60 Human Tumor Cell Lines Screen by the Developmental Therapeutics Program (DTP) at the National Cancer Institute (NCI), Maryland, USA. The operation of this screen utilizes 60 different human tumor cell lines, representing leukemia, non-small-cell lung cancer, colon cancer, CNS cancer, melanoma, ovarian cancer, renal cancer, prostate cancer and breas t cancer.
(§4) The compounds were supplied as dry powder and a single concentration is tested in all 60 cell lines at a single dose of 10 µM solution in dimethyl sulfoxide (DMSO) using Sulforhodamine B assay. Briefly, cells are seeded in 96 well plates at an appropriate density and incubated for 1 day. After 1 day, some of the plates are processed to determine the density time zero. To the remaining plates, compounds are added at 10 µM concentration. Plates are incubated a further 2 days, then fixed and staine d with sulphorhodamine B. Growth inhibition is calculated relative to cells without drug treatment and the time zero control. The use of a time zero control allows the determination of cell kill as well as net growth inhibition.
(§5) 2. Detection of IC50 against MDA-MB-435, SNB-75 cell lines and normal cell line WI -38.
(§6) Antiproliferative activities of 5c in melanoma cell line MDA-MB-435, glioblastoma cell line SNB-75 and normal cell line WI -38 and that of 8a in melanoma cell line MDA-MB-435 and normal cell line WI-38 were measured spectrophotometrically using in vitro MTT based toxicology assay kit (catalog no. M -5655, M-8910) (Sigma Aldrich), according to the manufacturer’s protocol. The three examined cell lin es were obtained from American Type Culture Collection (ATCC). Briefly, cells were platted (cells density 1.2 – 1.8 × 10,000 cells/well) in a volume of 100 µl complete growth medium + 100 μl of the tested compound per well in a 96-well plate for 48 h before the MTT assay. The cultures were removed from incubator into laminar flow hood then each vial of MTT [M-5655] should be reconstituted with 3 ml of medium or balanced salt solution without phenol red and serum. Reconstituted MTT was added in an amount equal to […]

IGROV1 = experiment: NCI-60 single dose screen, sulforhodamine B; assay type: cell-based, human; conditions: Ovarian cancer IGROV1; single dose 10^−5 M
Procedure: as §1, §2, §3, §4, §5, §6

MDA-MB-468 = experiment: NCI-60 single dose screen, sulforhodamine B; assay type: cell-based, human; conditions: Breast cancer MDA-MB-468; single dose 10^−5 M
Procedure: as §1, §2, §3, §4, §5, §6

MCF7 = experiment: NCI-60 single dose screen, sulforhodamine B; assay type: cell-based, human; conditions: Breast cancer MCF7; single dose 10^−5 M
Procedure: as §1, §2, §3, §4, §5, §6

SK-OV-3 = experiment: NCI-60 single dose screen, sulforhodamine B; assay type: cell-based, human; conditions: Ovarian cancer SK-OV-3; single dose 10^−5 M
Method in brief: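 Sulforhodamine B staining after 2 days' exposure to compound at 10^−5 M, given one day after seeding. Values are growth inhibition relative to untreated and time-zero plates, so cell kill and net growth inhibition can be distinguished.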

[1] = system: glioblastoma SNB-75 cells; experiment: Cell cycle analysis, PI flow cytometry; assay type: cell-based, human; conditions: SNB-75, after 24 h at IC50 concentration
Procedure: Melanoma MDA -MB-435 and glioblastoma SNB-75 cells were treated with the quinazolinone 5c for 24 h (at its IC50 concentration), and then cells were washed twice with ice - cold phosphate buffered saline (PBS). Consequently, the treated cells were collected by centrifugation, fixed in ice -cold 70% (v/v) ethanol, washed with PBS, re -suspended with 100 μg/mL RNase, stained with 40 μg/mL propidium iodide (PI), and analyzed by flow cytometry using FACS Calibur (Becton Dickinson, BD, Franklin Lakes, NJ, USA). The cell cycle distributions were calculated using Cell Quest software 5.1 (Becton Dickinson). […]

[2] = system: normal fibroblast cells WI-38; experiment: Cytotoxic activity in normal cells, MTT assay; assay type: cell-based; conditions: Homo sapiens, WI-38 normal cells, 48 h, read-out: IC50 (µM) ± SD WI-38
Procedure: as §5
as §6, with “96-well” for “96-well plate for 48 h before the MTT assay. The cultures were removed from incubator into laminar flow hood then each vial of MTT [M-5655] should be reconstituted with 3 ml of medium or balanced salt solution without phenol red and serum. Reconstituted MTT was added in an amount equal to”
(§7) salt solution without phenol red and serum.

CDK2 = biological target: T1, CDK2 (Homo sapiens, UniProt P24941); experiment: CDK2 inhibition assay, colorimetric 96-well kit (BPS Bioscience); assay type: biochemical; conditions: in vitro kinase inhibition; read-out: IC50 (µM) ± SD against CDK2
T1 construct: purchased BPS Bioscience 79599
Procedure: It was reported that CDK2 is overexpressed in melanoma[44]^,[45].
CDK2 enzyme inhibition activity was measured for the quinazolinones 5c and 8a using a colorimetric 96-well CDK2 assay kit (BPS Bioscience) (catalog no. 79599), according to the manufacturer's protocol. All the IC50 values were calculated using GraphPad Prism 7.0 Software.
Figure S1. The pharmacokinetic profile of compound 5c using SwissADME web server.
(1 picture or pasted object on this page, not shown here)

[3] = system: melanoma cell line MDA-MB-435; experiment: Detection of IC50, MTT assay; assay type: cell-based; conditions: Homo sapiens, read-out: IC50 (µM)±SD, 50% inhibition of cell viability, Melanoma MDA-MB-435, 48 h
Procedure: as §5
as §6, with “96-well” for “96-well plate for 48 h before the MTT assay. The cultures were removed from incubator into laminar flow hood then each vial of MTT [M-5655] should be reconstituted with 3 ml of medium or balanced salt solution without phenol red and serum. Reconstituted MTT was added in an amount equal to”
as §7

| SMILES | GI% at 10^−5 M (HL-60(TB)) | GI% at 10^−5 M (IGROV1) | GI% at 10^−5 M (MDA-MB-468) | GI% at 10^−5 M (MCF7) | GI% at 10^−5 M (SK-OV-3) [%] | %G0-G1 [1] [%] | %G2/M [1] [%] | %Pre-G1 [1] [%] | %S [1] [%] | Comment (cell cycle) [1] | IC50 [2] [µM] | IC50 (CDK2) [µM] | IC50 [3] [µM] |
| --- | --- | --- | --- | --- | --- | --- | --- | --- | --- | --- | --- | --- | --- |
| O=C(CNn1c(COc2ccccc2)nc2ccccc2c1=O)Nc1ccccc1 [Compound 4a, 2-((4-oxo-2-(phenoxymethyl)quinazolin-3(4H)-yl)amino)-N-phenylacetamide] | – (– means GI < 10%) | 19.54% | – (– means GI < 10%) | 15.7% |  |  |  |  |  |  |  |  |  |
| COc1ccc(NC(=O)CNn2c(COc3ccccc3)nc3ccccc3c2=O)cc1 [Compound 4b, N-(4-methoxyphenyl)-2-((4-oxo-2-(phenoxymethyl)quinazolin-3(4H)-yl)amino)acetamide] | – (– means GI < 10%) | 6.78% | – (– means GI < 10%) | 13.20% |  |  |  |  |  |  |  |  |  |
| O=C(CNn1c(COc2ccccc2)nc2ccccc2c1=O)Nc1ccc(Cl)cc1 [Compound 4c, N-(4-chlorophenyl)-2-((4-oxo-2-(phenoxymethyl)quinazolin-3(4H)-yl)amino)acetamide] | – (– means GI < 10%) | 19.62% | 11.13% | 10.05% | 4.95 |  |  |  |  |  |  |  |  |
| O=c1c2ccccc2nc(COc2ccccc2)n1NS(=O)(=O)c1ccccc1 [Compound 5a, N-(4-oxo-2-(phenoxymethyl)quinazolin-3(4H)-yl)benzenesulfonamide] | – (– means GI < 10%) | 16.06% | – (– means GI < 10%) | 14.31% |  |  |  |  |  |  |  |  |  |
| Cc1ccc(S(=O)(=O)Nn2c(COc3ccccc3)nc3ccccc3c2=O)cc1 [Compound 5b, 4-methyl-N-(4-oxo-2-(phenoxymethyl)quinazolin-3(4H)-yl)benzenesulfonamide] | – (– means GI < 10%) | 21.58% | – (– means GI < 10%) | 11.54% | −4.74 |  |  |  |  |  |  |  |  |
| O=c1c2ccccc2nc(COc2ccccc2)n1NS(=O)(=O)c1ccc(Cl)cc1 [Compound 5c, 4-chloro-N-(4-oxo-2-(phenoxymethyl)quinazolin-3(4H)-yl)benzenesulfonamide] | 24.32% | 38.26% | 59.61% | 58.11% |  | 39.53 | 31.78 | 44.22 | 28.69 | Pre G1 apoptosis and cell growth arrest at G2/M | 62.5 ± 3.5 | 0.63 ± 0.022 | 3.03 ± 0.38 |
| COc1cc(C=Nn2c(COc3ccccc3)nc3ccccc3c2=O)ccc1O [Compound 6a, 3-((4-hydroxy-3-methoxybenzylidene)amino)-2-(phenoxymethyl)quinazolin-4(3H)-one] | – (– means GI < 10%) | – (– means GI < 10%) | – (– means GI < 10%) | 22.94% |  |  |  |  |  |  |  |  |  |
| O=c1c2ccccc2nc(COc2ccccc2)n1N=CC=Cc1ccccc1 [Compound 6b, 2-(phenoxymethyl)-3-((3-phenylallylidene)amino)quinazolin-4(3H)-one] | – (– means GI < 10%) | – (– means GI < 10%) | 10.89% | 16.22% |  |  |  |  |  |  |  |  |  |
| CN1CCN(CC(=O)Nn2c(COc3ccccc3)nc3ccccc3c2=O)CC1 [Compound 8a, 2–(4-methylpiperazin-1-yl)-N-(4-oxo-2-(phenoxymethyl)quinazolin-3(4H)-yl)acetamide] | 19.74% | 26.87% | 49.06% | 57.64% | 22.99 |  |  |  |  |  | 37.3 ± 2.1 | 1.74 ± 0.062 | 6.22 ± 0.53 |
| O=C(CN1CCN(c2ccccc2)CC1)Nn1c(COc2ccccc2)nc2ccccc2c1=O [Compound 8b, N-(4-oxo-2-(phenoxymethyl)quinazolin-3(4H)-yl)-2–(4-phenylpiperazin-1-yl)acetamid] | – (– means GI < 10%) | – (– means GI < 10%) | – (– means GI < 10%) | – (– means GI < 10%) |  |  |  |  |  |  |  |  |  |
| COc1ccc(N2CCN(CC(=O)Nn3c(COc4ccccc4)nc4ccccc4c3=O)CC2)cc1 [Compound 8c, 2–(4-(4-methoxyphenyl)piperazin-1-yl)-N-(4-oxo-2-(phenoxymethyl)quinazolin-3(4H)-yl)acetamide] | – (– means GI < 10%) | – (– means GI < 10%) | – (– means GI < 10%) | – (– means GI < 10%) |  |  |  |  |  |  |  |  |  |
